Source: US10071158B2, “Combination of the application of antibodies for immunostimulation together with glucocorticoids” (Lindis Biotech GmbH, priority 2005, dated 2018)
“Also recorded” adds a separate entry of the source.

Experiments:
[1] = system: mononuclear cells of the peripheral blood (PBMC); assay: Release of IL-6 by PBMC after stimulation with anti-EpCAM x anti-CD3 antibody without/with HCT8 tumour cells (ELISA); assay type: cell-based, human; conditions: antibody-stimulated PBMC with HCT8; dexamethasone 0.01 μg/ml to 10 μg/ml (FIG. 1B)
Procedure: FIG. 1A represents the release of IL-6, the IL-6 concentration in pg/ml being plotted on the y-axis. On the x-axis the respective stimulation of the PBMC has been plotted, with unstimulated PBMC serving by way of control (bar “PBMC”). In this connection, E signifies in each instance the stimulation with 100 μg/ml trifunctional bispecific antibody with the specificity anti-EpCAM x anti-CD3. […] In the experiment according to FIG. 1A the release of IL-6 from PBMC is investigated after stimulation without contact with EpCAM-positive tumour cells (=target cells). The stimulation without EpCAM-positive tumour cells corresponds to the non-specific release of cytokine, which is independent of the antigen binding. Release is accordingly effected systemically by the totality of the PBMC.
This procedure of stimulation with EpCAM-positive tumour cells corresponds to the situation of the release of IL-6 by the PBMC at the site of antigen binding. […] In the clinical use of the immunostimulating antibody together with the glucocorticoid the high quantity of IL-6 is released only by a few PBMC that are directly involved in the specific action. […]
(§1) FIGS. 14 to 16 show graphic representations of the results of the release of various cytokines in tumour patients by PBMC. […] The release of the same cytokines was measured likewise. […]

HCT8 tumour cells [2] = assay: Two-hour cytotoxicity assay with fluorescence-marked (BCECF-AM) HCT8 tumour cells, stimulated PBMC (FIG. 5); assay type: cell-based, human; parameters: effect on specific percentage cytotoxicity of stimulated PBMC: dose or concentration left out as unconfirmed
Procedure: FIG. 5A-5D represents in diagrams the results of the measurement of the specific percentage cytotoxicity, which was determined in a two-hour cytotoxicity assay with fluorescence-marked HCT8 tumour cells. In FIGS. 5A to 5D the specific percentage cytotoxicity against HCT8 has been plotted as a function of the ratio of effector cells to target cells (E/T), the cytotoxicity test having been carried out in each instance in the case of a ratio of the effector cells to the target cells of 40:1, 20:1, 10:1, 5:1 and 2.5:1.
With the aid of a cytotoxicity test the influence of glucocorticoid on the T-cell toxicity was investigated. The extraction of the PBMC and the stimulation thereof were carried out in accordance with the above Example 1.
The measurement of cytotoxicity was undertaken with the aid of a fluorescence test using the dyestuff BCECF-AM. The measurement was undertaken by means of 2 h release technology corresponding to the procedure in Kolber et al. (1988) J. Immunol. Meth. 108: 255-264.

[3] = after i.v. injection; cited from earlier work
HCT8 tumour cells [4] = assay: Cytotoxicity assay with fluorescence-marked HCT8 tumour cells, PBMC of healthy test subjects and tumour patients (FIG. 10); assay type: cell-based, human
Procedure: FIGS. 10A to 10C represent the mean values of the measurements carried out in respect of three healthy test subjects, whereas FIG. 10D represents the mean values of the measurements carried out in respect of six patients with gastrointestinal carcinoma. In the experiments a stimulation was effected with trifunctional bispecific antibodies with the specificity anti-EpCAM x anti-CD3 at various concentrations amounting to 10 ng/ml, 100 ng/ml and 1000 ng/ml. The respective concentration of the antibody that has been used is specified in FIGS. 10A to 10D. The concentration of the PBMC amounted to 10^6 cells/ml, that of the HCT8 cells amounted to 5×10^4 cells/ml. […] On the y-axis the percentage cytotoxicity has been plotted; on the x-axis the respective experimental assay of the PBMC has been plotted, with unstimulated PBMC serving by way of control (PBMC).

[5] = system: mononuclear cells of the peripheral blood (PBMC); assay: Release of TNF-α by PBMC after stimulation with anti-EpCAM x anti-CD3 antibody without/with HCT8 tumour cells (ELISA); assay type: cell-based, human; conditions: without HCT8; dexamethasone 0.1 μg/ml (FIG. 2C)
Description: FIG. 2A-2C represents in diagrams the results of the release of tumour necrosis factor α (TNF-α) after stimulation with trifunctional bispecific antibody of the specificity anti-EpCAM x anti-CD3 without and in the presence of EpCAM-positive tumour cells.
This stimulation without target cells corresponds, in turn, as already stated with respect to FIG. 1A, to the systemic, non-specific release of cytokine, which arises independently of the antibody/antigen interaction. This systemic release of TNF-α is effected by the totality of the PBMC population. […]
FIG. 2B represents, in a diagram similar to FIG. 1B, the release of TNF-α from PBMC after antibody stimulation with contact with EpCAM-positive tumour cells, the TNF-α concentration in pg/ml being plotted, here too, on the y-axis. […] In the case of stimulation with contact with EpCAM-positive tumour cells, in comparison with the stimulation without contact with target cells, in connection with the release of TNF-α absolutely higher values are also measured, which, however, as already stated above with respect to the release of IL-6 in connection with FIG. 1B, has its origin in the specific immunological action at the site of the antibody/antigen interaction. […]
as §1

[6] = system: mononuclear cells of the peripheral blood (PBMC); assay: Release of IFN-γ by PBMC after stimulation with anti-EpCAM x anti-CD3 antibody without/with HCT8 tumour cells (ELISA); assay type: cell-based, human; conditions: dexamethasone 0.1 μg/ml
Procedure: Mononuclear cells were extracted from the peripheral blood of a healthy volunteer by means of centrifugation over Ficoll (density 1.068 g/cm^3). To this end, venous heparinised blood was stratified over Ficoll and centrifuged at 2000 rpm for 20 min. The cell layer located above the Ficoll was pipetted off after centrifugation and was washed with PBS.
For the purpose of stimulation, the PBMC were used at a concentration of 1×10^6/ml. The stimulation of the PBMC was effected with an intact trifunctional bispecific antibody either of the specificity anti-EpCAM x anti-CD3 at a concentration of 100 μg/ml or of the specificity anti-HER2/neu x anti-CD3 at a concentration of 1 mg/ml. The stimulation was carried out for 24 h by incubation at 37 ° C. The stimulation was effected in each instance without tumour cells or in the presence of 5×10^4 HCT8 tumour cells (relative to ATCC; EpCAM-positive) per ml.
After the stimulation the determination of the concentrations of the cytokines IL-6, IL-10, TNF-α and IFN-γ was undertaken in the supernatant on plates with 24 recesses in each instance by means of an ELISA. In each instance duplicate measurements were carried out. The ELISAs were undertaken by means of standardised kits produced by R&D Systems, in accordance with the manufacturer's instructions.

C[C@@H]1C[C@H]2[C@@H]3CCC4=CC(=O)C=C[C@]4(C)[C@@]3(F)[C@@H](O)C[C@]2(C)[C@@]1(O)C(=O)CO [dexamethasone]
release of IL-6 in the supernatant [1]: above 5000 pg/ml
effect on the cytotoxicity of stimulated PBMC (HCT8 tumour cells [2]; dexamethasone 0.01 μg/ml): no effect
percentage cytotoxicity (HCT8 tumour cells [2]; dexamethasone 0.1 μg/ml to 10 μg/ml, stimulation in the presence of HCT8, E/T 40:1): maintained constant at a high level
inhibition of the specific percentage cytotoxicity (HCT8 tumour cells [2]; dexamethasone 0.1 μg/ml, with or without HCT8 during stimulation (FIG. 5B)): about 50 percentage points
inhibition of the percentage specific cytotoxicity (HCT8 tumour cells [2]; dexamethasone 1 μg/ml, E/T 20:1, stimulation in the absence of HCT8): distinctly greater inhibition
inhibition of the specific percentage cytotoxicity compared with 0.1 μg/ml (HCT8 tumour cells [2]; dexamethasone 1 μg/ml, stimulation in the presence of HCT8 (FIG. 5C)): roughly the same level
cytotoxicity values in relation to lower dexamethasone concentrations (HCT8 tumour cells [2]; dexamethasone 10 μg/ml, stimulation in the absence of HCT8): declined further
percentage cytotoxicity (HCT8 tumour cells [2]; dexamethasone 10 μg/ml, stimulation in the presence of HCT8, E/T 20:1 (FIG. 5D)): 30%
specific percentage cytotoxicity (HCT8 tumour cells [2]; dexamethasone 10 μg/ml, stimulation in the presence of HCT8, E/T twice as large (40:1)): about 60%
effect on specific percentage cytotoxicity of stimulated PBMC (HCT8 tumour cells [2]; dexamethasone (FIG. 5A)): no effect; also recorded: no inhibition
effect on cytotoxicity (HCT8 tumour cells [2]; dexamethasone starting from 0.1 μg/ml, independent of HCT8 during stimulation): significant reducing; also recorded: distinct reducing
percentage cytotoxicity as a function of dexamethasone concentration (HCT8 tumour cells [2]; stimulation of PBMC without HCT8): declines further
maximum plasma concentrations attained [3]: within a few minutes
inhibition of the specific percentage cytotoxicity (HCT8 tumour cells [4]; antibody 10 ng/ml, no contact with HCT8, dexamethasone, healthy test subjects): about 5 percentage points
inhibition of the specific percentage cytotoxicity (HCT8 tumour cells [4]; antibody 10 ng/ml, with HCT8, dexamethasone up to 1.0, healthy test subjects (FIG. 10A)): approximately 15 percentage points
specific percentage cytotoxicity (HCT8 tumour cells [4]; antibody 10 ng/ml, with HCT8, with dexamethasone, healthy test subjects): ~41%
inhibition of the cytotoxicity (HCT8 tumour cells [4]; antibody 100 ng/ml, dexamethasone, patients with gastrointestinal tumours (FIG. 10D)): approximately 27 percentage points
inhibition of the specific percentage cytotoxicity (HCT8 tumour cells [4]; antibody 100 ng/ml, with HCT8, dexamethasone up to 1.0, healthy test subjects (FIG. 10B)): about 30 percentage points
specific percentage cytotoxicity (HCT8 tumour cells [4]; antibody 100 ng/ml, with HCT8, with dexamethasone, healthy test subjects): ~50%
cytotoxicity (HCT8 tumour cells [4]; antibody 100 ng/ml, with dexamethasone, patients with gastrointestinal tumours): ~51%
inhibition of the cytotoxicity (HCT8 tumour cells [4]; antibody 100 ng/ml, without contact with HCT8, dexamethasone, healthy test subjects): approximately 10 percentage points
inhibition of the specific percentage cytotoxicity (HCT8 tumour cells [4]; antibody 1000 ng/ml, with HCT8, dexamethasone up to 1.0, healthy test subjects (FIG. 10C)): about 20 percentage points
specific percentage cytotoxicity (HCT8 tumour cells [4]; antibody 1000 ng/ml, with HCT8, with dexamethasone, healthy test subjects): ~67%
inhibition of the cytotoxicity (HCT8 tumour cells [4]; antibody 1000 ng/ml, without contact with HCT8, dexamethasone, healthy test subjects): about 2 percentage points
non-specific secretion of TNF-α, % of value with antibody without dexamethasone [5]: ~20%
release of IFN-γ [6]: under 3000 pg/ml
